Results taken from PubChem BioAssay AID256 (DTP/NCI, 2004).
Toxic doses and inconclusive results are not listed. How the source made its calls: active means survival T/C of 150% or more; inactive means T/C below 125% in these data.

Tested on: CD2F1 mice, L1210 leukemia ip, survival T/C
Test: NCI In Vivo Anticancer Drug Screen. Data for tumor model L1210 Leukemia (intraperitoneal) in CD2F1 (CDF1) mice
Details: endpoint: mean survival time, higher = longer survival
Procedure, shortened: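 Vehicle-treated tumor-bearing mice served as controls (C) for compound-treated mice (T). Reported figure is T divided by C.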

[1] = dose: 100.0 mg/kg/injection, schedule: Q04DX003 (ip), vehicle: saline with Tween-80
[2] = dose: 200.0 mg/kg/injection, schedule: Q04DX003 (ip), vehicle: saline with Tween-80
[3] = dose: 400.0 mg/kg/injection, schedule: Q04DX003 (ip), vehicle: saline with Tween-80
[4] = dose: 25.0 mg/kg/injection, schedule: Q04DX003 (ip), vehicle: saline with Tween-80
[5] = dose: 50.0 mg/kg/injection, schedule: Q04DX003 (ip), vehicle: saline with Tween-80
[6] = dose: 100.0 mg/kg/injection, schedule: Q01DX001 (ip), vehicle: saline
[7] = dose: 200.0 mg/kg/injection, schedule: Q01DX001 (ip), vehicle: saline

Measured: T/C

O=C1c2ccccc2C(=O)N1CCCCCBr
inactive: dose: 100.0 mg/kg/injection, schedule: Q01DX009 (ip), vehicle: saline with Tween-80 96 % of control | [1] 103 % of control | dose: 200.0 mg/kg/injection, schedule: Q01DX009 (ip), vehicle: saline with Tween-80 96 % of control | [2] 91 % of control | dose: 400.0 mg/kg/injection, schedule: Q01DX009 (ip), vehicle: saline with Tween-80 94 % of control | [3] 100 % of control

COC1CCCC[CH]1[Hg][Br] (centres undefined)
inactive: dose: 3.13 mg/kg/injection, schedule: Q01DX009 (ip), vehicle: saline with Tween-80 102 % of control

N#CSCc1cc(Cl)c(CSC#N)cc1Cl
inactive: dose: 75.0 mg/kg/injection, schedule: Q04DX003 (ip), vehicle: saline 102 % of control | dose: 150.0 mg/kg/injection, schedule: Q04DX003 (ip), vehicle: saline 98 % of control | dose: 300.0 mg/kg/injection, schedule: Q04DX003 (ip), vehicle: saline 102 % of control

O=C(Nc1ccccc1F)c1cccc(Cl)c1
inactive: dose: 100.0 mg/kg/injection, schedule: Q01DX009 (ip), vehicle: saline + alcohol 94 % of control | dose: 100.0 mg/kg/injection, schedule: Q04DX003 (ip), vehicle: saline + alcohol 95 % of control | dose: 200.0 mg/kg/injection, schedule: Q01DX009 (ip), vehicle: saline + alcohol 94 % of control | dose: 200.0 mg/kg/injection, schedule: Q04DX003 (ip), vehicle: saline + alcohol 95 % of control | dose: 400.0 mg/kg/injection, schedule: Q01DX009 (ip), vehicle: saline + alcohol 94 % of control | dose: 400.0 mg/kg/injection, schedule: Q04DX003 (ip), vehicle: saline + alcohol 94 % of control

CC(=O)c1ccc(N=C=O)cc1
inactive: dose: 25.0 mg/kg/injection, schedule: Q01DX001 (ip), vehicle: saline with Tween-80 100 % of control | dose: 50.0 mg/kg/injection, schedule: Q01DX001 (ip), vehicle: saline with Tween-80 88 % of control | dose: 100.0 mg/kg/injection, schedule: Q01DX001 (ip), vehicle: saline with Tween-80 92 % of control

O=C(NC(C(=O)O)c1ccccc1)OCc1ccccc1 (centres undefined)
inactive: [1] 102 % of control | [2] 107 % of control | [3] 97 % of control

O=[N+]([O-])c1cc(C(F)(F)F)ccc1F
inactive: [4] 110 % of control | [5] 98 % of control | [1] 105 % of control

O=C1NC2COC3COc4ccccc4OC3C2N1Cc1ccccc1 (centres undefined)
inactive: dose: 75.0 mg/kg/injection, schedule: Q01DX001 (ip), vehicle: saline with Tween-80 93 % of control | dose: 150.0 mg/kg/injection, schedule: Q01DX001 (ip), vehicle: saline with Tween-80 95 % of control | dose: 300.0 mg/kg/injection, schedule: Q01DX001 (ip), vehicle: saline with Tween-80 93 % of control

Cc1cccnc1NC(=O)/C=C/C(=O)O
inactive: dose: 12.5 mg/kg/injection, schedule: Q04DX003 (ip), vehicle: saline with Tween-80 96 % of control | [4] 101 % of control | [5] 104 % of control

CC12CCC3C(CCC4CCCCC43C)C1CC/C2=N\O (centres undefined)
inactive: dose: 100.0 mg/kg/injection, schedule: Q04DX003 (sc), vehicle: steriod suspending solution 96 % of control | dose: 200.0 mg/kg/injection, schedule: Q04DX003 (sc), vehicle: steriod suspending solution 104 % of control | dose: 400.0 mg/kg/injection, schedule: Q04DX003 (sc), vehicle: steriod suspending solution 89 % of control

CC(=O)N/N=C1\CC2CCC1(C)C2(C)C (centres undefined)
inactive: [6] 102 % of control | [7] 102 % of control | dose: 400.0 mg/kg/injection, schedule: Q01DX001 (ip), vehicle: saline 98 % of control

O=C(Nc1c(Oc2ccc(Cl)cc2Cl)ccc(Cl)c1S(=O)(=O)O)Nc1c(Oc2ccc(Cl)cc2Cl)ccc(Cl)c1S(=O)(=O)O
inactive: [6] 94 % of control | [7] 93 % of control
